# Where a name gives a salt, the structure may show the parent alone.
# Test system: mechanical allodynia after chronic constriction injury (CCI) to the sciatic nerve
# Experiment: Mechanical allodynia by response to von Frey fibers, rat chronic constriction injury (CCI) model
# Format: in vivo, male Sprague-Dawley rats
# Details: 10 mg/kg IP, 2 hr post dosing
# Excerpt: Chronic Constriction Injury: Heat and cold allodynia responses as well as mechanical allodynia sensations can be evaluated as described below in rats having a chronic constriction injury (CCI). A unilateral mononeuropathy is produced in rats using the chronic constriction injury model described in Bennett et al., Pain (1988) 33:87-107. CCI is produced in anesthetized rats as follows. The lateral aspect of each rat's hind limb is shaved and scrubbed with Nolvasan. Using aseptic techniques, an incision is made on the lateral aspect of the hind limb at the mid-thigh level. The biceps femoris is bluntly dissected to expose the sciatic nerve. On the right hind limb of each rat, four loosely tied ligatures (for example, Chromic gut 4.0; Ethicon, Johnson and Johnson, Somerville, N.J.) are made around the sciatic nerve approximately 1-2 mm apart. On the left side of each rat, an identical dissection is performed except that the sciatic nerve is not ligated (sham). The muscle is closed with a continuous suture pattern with, e.g., 4-0 Vicryl (Johnson and Johnson, Somerville, N.J.) and the overlying skin is closed with wound clips. The rats are ear-tagged for identification purposes and returned to animal housing.
# To induce allodynia, male Sprague-Dawley rats underwent chronic constriction injury (CCI) to the sciatic nerve as described by Bennett and Xie, Pain 1988; 33(1):87-107. The plantar surface of the hind paws was stimulated with von Frey filaments (Stoelting) to induce a withdrawal response by blinded personnel. The bending force of fiber required to induce a 50% withdrawal response was calculated following CCI surgery (pre-dosing baseline). N=5-6 allodynic rats received a single intraperitoneal administration of test compound or vehicle. Two hours post-dosing, 50% paw withdrawal threshold was determined again by blinded testers using von Frey filaments. The change in 50% withdrawal threshold relative to pre-dosing baseline is reported in Table 2 for various substituted pyrazolo[1,5-a]pyridine compounds of the invention.
Compound,Mechanical Allodynia ΔWT (change from pre-dosing 50% withdrawal threshold),Observation noted beside the allodynia value
"CC(C)c1nn2ccccc2c1C(N)C(C)C (centres unmarked) [Compound 1051, 1-(2-isopropylpyrazolo[1,5-a]pyridin-3-yl)-2-methylpropan-1-amine hydrochloride]",0.29 grams,
"CC(C)c1nn2ccccc2c1-c1cccc(N)c1 [Compound 1100, 3-(2-isopropyl-pyrazolo[1,5-a]pyridin-3-yl)-phenylamine]",0 grams,
"CCC(=O)c1c(-c2ccc(F)cc2)nn2ccccc12 [Compound 1070, 1-(2-(4-fluorophenyl)pyrazolo[1,5-a]pyridin-3-yl)propan-1-one]",0 grams,
"CC(NCc1ccccc1)C(=O)c1c(C(C)C)nn2ccccc12 (centres unmarked) [compound 1071, 2-(benzylamino)-1-(2-isopropylpyrazolo[1,5-a]pyridin-3-yl)propan-1-one]",0.57 grams,
"CC(O)C(=O)c1c(C(C)C)nn2ccccc12 (centres unmarked) [Compound 1068, 2-hydroxy-1-(2-isopropylpyrazolo[1,5-a]pyridin-3-yl)propan-1-one]",0.7 grams,
"CC(=O)SC(C)C(=O)c1c(C(C)C)nn2ccccc12 (centres unmarked) [Compound 1081, S-1-(2-isopropylpyrazolo[1,5-a]pyridin-3-yl)-1-oxopropan-2-yl ethanethioate]",0.07 grams,
"CC(C)c1nn2ccccc2c1-c1cccnc1 [Compound 1111, 2-Isopropyl-3-pyridin-3-yl-pyrazolo[1,5-a]pyridine]",0 grams,
"COC(C)C(=O)c1c(C(C)C)nn2ccccc12 (centres unmarked) [Compound 1069, 1-(2-isopropylpyrazolo[1,5-a]pyridin-3-yl)-2-methoxypropan-1-one]",0.13 grams,
"CC(C)c1nn2ccccc2c1/C=N/NC(N)=O [Compound 1074, (E)-2-((2-isopropylpyrazolo[1,5-a]pyridin-3-yl)methylene)hydrazinecarboxamide]",3.64 grams,lethargy
"CC(C)CC(N)C(=O)c1c(C(C)C)nn2ccccc12 (centres unmarked) [Compound 1061, 2-amino-1-(2-isopropylpyrazolo[1,5-a]pyridin-3-yl)-4-methylpentan-1-one]",0 grams,
"CC(C)c1nn2ccccc2c1-c1ccnc(NCCCO)n1 [Compound 1134, 3-[4-(2-Isopropyl-pyrazolo[1,5-a]pyridin-3-yl)-pyrimidin-2-ylamino]-propan-1-ol]",0 grams,
"CC(C)c1nn2ccccc2c1-c1ccc(N)cc1 [Compound 1101, 4-(2-Isopropyl-pyrazolo[1,5-a]pyridin-3-yl)-phenylamine]",0.02 grams,
"CC(N)C(=O)c1c(-c2ccc(F)cc2)nn2ccccc12 (centres unmarked) [Compound 1052, 2-amino-1-(2-(4-fluorophenyl)pyrazolo[1,5-a]pyridin-3-yl)propan-1-one hydrochloride]",10 mg/kg: 0.39 grams,
"CCC(N)C(=O)c1c(C(C)C)nn2ccccc12 (centres unmarked) [Compound 1060, 2-amino-1-(2-isopropylpyrazolo[1,5-a]pyridin-3-yl)butan-1-one]",10 mg/kg: 1.87 grams,
"CC(C)C(=O)c1c(N(C)C)nn2ccccc12 [Compound 1072, 1-(2-(dimethylamino)pyrazolo[1,5-a]pyridin-3-yl)-2-methylpropan-1-one]",1.48 grams,lethargy
"CC(C)c1nn2ccccc2c1-c1ccncc1 [compound 1103, 2-Isopropyl-3-pyridin-4-yl-pyrazolo[1,5-a]pyridine]",1.54 grams,
"CC(C)c1nn2ccccc2c1-c1c[nH]c(=S)[nH]1 [compound 1085, 4-(2-isopropylpyrazolo[1,5-a]pyridin-3-yl)-1H-imidazole-2(3H)-thione]",1.93 grams,
"CC(C)c1nn2ccccc2c1-c1ccnc(N)n1 [Compound 1139, 4-(2-Isopropyl-pyrazolo[1,5-a]pyridin-3-yl)-pyrimidin-2-ylamine]",0.21 grams,
"CC(C)c1nn2ccccc2c1C=O [Compound 1073, 2-isopropylpyrazolo[1,5-a]pyridine-3-carbaldehyde]",0 grams,
"COc1nn2ccccc2c1C(=O)C(C)N (centres unmarked) [Compound 1057, 2-amino-1-(2-methoxypyrazolo[1,5-a]pyridin-3-yl)propan-1-one]",0.06 grams,
"CC(C)c1nn2ccccc2c1-c1cc[nH]n1 [Compound 1141, 2-isopropyl-3-(1H-pyrazol-3-yl)-pyrazolo[1,5-a]pyridine]",1.04 grams,
"COc1nn2ccccc2c1C(=O)C(C)C [Compound 1055, 1-(2-methoxypyrazolo[1,5-a]pyridin-3-yl)-2-methylpropan-1-one]",10 mg/kg: 2.80 grams,
"CC(N)C(=O)c1c(N(C)C)nn2ccccc12 (centres unmarked) [Compound 1075, 2-amino-1-(2-(dimethylamino)pyrazolo[1,5-a]pyridin-3-yl)propan-1-one]",0.67 grams,
"CC(C)Nc1nccc(-c2c(C(C)C)nn3ccccc23)n1 [compound 1137, isopropyl-[4-(2-isopropylpyrazolo[1,5-a]pyridin-3-yl)-pyrimidin-2-yl]-amine]",3.26 grams,
"CC(C)c1nn2ccccc2c1-c1ccc(N2CCOCC2)cc1 [Compound 1102, 2-Isopropyl-3-(4-morpholin-4-yl-phenyl)-pyrazolo[1,5-a]pyridine]",0 grams,
"CC(=O)OC(C)C(=O)c1c(C(C)C)nn2ccccc12 (centres unmarked) [Compound 1067, 1-(2-isopropylpyrazolo[1,5-a]pyridin-3-yl)-1-oxopropan-2-yl acetate]",0.46 grams,
"CC(C)c1nn2ccccc2c1-c1ccnc(NCCCN2CCN(C)CC2)n1 [Compound 1135, [4-(2-Isopropyl-pyrazolo[1,5-a]pyridin-3-yl)-pyrimidin-2-yl]-[3-(4-methyl-piperazin-1-yl)-propyl]-amine]",0 grams,
"C/C(=N/O)C(=O)c1c(C(C)C)nn2ccccc12 [Compound 1083, (Z)-2-(hydroxyimino)-1-(2-isopropylpyrazolo[1,5-a]pyridin-3-yl)propan-1-one]",0 grams,
"CC(=O)c1c(C(C)C)nn2ccccc12 [Compound 1080, 1-(2-isopropylpyrazolo[1,5-a]pyridin-3-yl)ethanone]",1.14 grams,
"COCC(N)C(=O)c1c(C(C)C)nn2ccccc12 (centres unmarked) [Compound 1082, 2-amino-1-(2-isopropylpyrazolo[1,5-a]pyridin-3-yl)-3-methoxypropan-1-one]",0.5 grams,

# Same assay, conditions: 20 mg/kg IP, 2 hr post dosing
row,Compound,Mechanical Allodynia ΔWT (change from pre-dosing 50% withdrawal threshold)
1,"CC(N)C(=O)c1c(-c2ccc(F)cc2)nn2ccccc12 (centres unmarked) [Compound 1052, 2-amino-1-(2-(4-fluorophenyl)pyrazolo[1,5-a]pyridin-3-yl)propan-1-one hydrochloride]",20 mg/kg: 0.31 grams
2,"CCC(N)C(=O)c1c(C(C)C)nn2ccccc12 (centres unmarked) [Compound 1060, 2-amino-1-(2-isopropylpyrazolo[1,5-a]pyridin-3-yl)butan-1-one]",20 mg/kg: 0.74 grams
3,"COc1nn2ccccc2c1C(=O)C(C)C [Compound 1055, 1-(2-methoxypyrazolo[1,5-a]pyridin-3-yl)-2-methylpropan-1-one]",20 mg/kg: 0 grams

# — US7585875B2, “Substituted pyrazolo[1,5-a]pyridine compounds and their methods of use” (Avigen, Inc., priority 2006, dated 2009)
